Measurements taken from ChEMBL document CHEMBL1150243, “Lignan glycosides from Neoalsomitra integrifoliola” (2008).

Experiment: Antiinflammatory activity against rat polymorphonuclear leucocytes assessed as inhibition of platelet activating factor-induced beta-glucuronidase release
Format: functional

For `C[C@@H]1C(=O)O[C@H]2[C@H](O)[C@@]34[C@H]5C[C@@H](C(C)(C)C)[C@]36[C@@H](OC(=O)[C@@H]6O)O[C@@]4(C(=O)O5)[C@@]12O` [GINKOLIDE B], the “inhibition (INH)” value was 78.4%.
